Test system: panel of cancer cell lines
Experiment: Cell viability (CellTiter-Glo) dose-response across cancer cell line panel;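 for EC50: after 72 h compound incubation with CellTiter-Glo ATP readout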
Format: cell-based, human
Settings: for EC50: Homo sapiens
Text: Next, we explored the effect of CSN5 inhibition on the viability of cancer cells. To obtain a comprehensive picture, we generated dose–response curves with a CSN5 inhibitor across more than 500 cancer cell lines in a previously described standardized setting[47] (Supplementary Data 1).
A standardized CellTiter-Glo Assay (Promega #G7570) based on the quantification of ATP was applied according to the manufacturer's protocol to measure the amount of viable cells in culture. In brief, cells were seeded into 384-well plates at optimal density for each cell line. After 4 h, compounds were added at different concentrations in growth medium and incubated for another 72 h in a humidifying chamber at 37 °C and 5% CO2. […] EC50 values were calculated from the plot of percentage of inhibition versus inhibitor concentration using the nonlinear regression analysis software Origin 7.5SR6 (OriginLab Corp.).

EC50 (8-MG-BA, cell line 8-MG-BA): 18.9 nM
EC50 (22Rv1, 22Rv1): 14.7 nM
EC50 (59M): 13.5 nM
EC50 697: 9 nM
EC50 (769-P): 8.84 nM
EC50 (786-0, 786-O): 8.79 nM
EC50 (1321-N1, 1321N1): 12 nM
EC50 (8305C): 7.18 nM
EC50 (23132/87): 7.39 nM
EC50 (A4/Fuk): 2.23 nM
EC50 (A101D): 3.29 nM
EC50 (A 172, A172): 8.05 nM
EC50 (A204, A-204): 5.28 nM
EC50 (A253, A-253): 9.94 nM
EC50 (A549, A549): 30.8 nM
EC50 (A673, A-673): 5.83 nM
EC50 (A2058, A2058): 19.4 nM
EC50 (A2780, A2780): 10.7 nM
EC50 (A-375, A-375): 12.1 nM
EC50 (ABC-1, ABC-1): 3.02 nM
EC50 (ACC-MESO-1, ACC-MESO-1): 23.6 nM
EC50 (ACHN): 7.43 nM
EC50 (AMO1, AMO-1): 2.18 nM
EC50 (AN3-CA, cell line AN3 CA): 15.5 nM
EC50 (AU565, AU565): 6.2 nM
EC50 (BFTC-909, BFTC-909): 20.9 nM
EC50 (BHY): 7.83 nM
EC50 (BICR 6): 18.4 nM
EC50 (BICR 16): 38.8 nM
EC50 (BICR 22): 12.3 nM
EC50 (BL-41, BL-41): 1.54 nM
EC50 (BT-20, BT-20): 26.8 nM
EC50 (BT-549, BT-549): 5.76 nM
EC50 (BV-173, BV-173): 8.13 nM
EC50 (BXPC-3, BxPC-3): 15.1 nM
EC50 (C32, C32): 13 nM
EC50 (CAKI-1, Caki-1): 12 nM
EC50 (CAKI-2, cell line Caki-2): 22.8 nM
EC50 (CAL-29): 16.3 nM
EC50 (CAL-51, CAL-51): 17.9 nM
EC50 (CAL-54, CAL-54): 9.06 nM
EC50 (CAL-78): 7.82 nM
EC50 (CAL-120, CAL-120): 7.23 nM
EC50 (CAMA-1, CAMA-1): 8.61 nM
EC50 (CAPAN-1, Capan-1): 9.26 nM
EC50 (CAS-1): 16.6 nM
EC50 (CCK-81): 9.52 nM
EC50 (CCRF-CEM): 3.12 nM
EC50 (CFPAC-1, CFPAC-1): 6.34 nM
EC50 (CHL-1, CHL-1): 9.51 nM
EC50 (CHP-212, cell line CHP-212): 5.04 nM
EC50 (CMK): 3.98 nM
EC50 (CMK-11-5, CMK-11-5): 6.27 nM
EC50 (CML-T1, CML-T1): 3.65 nM
EC50 (COLO 205, COLO 205): 35.7 nM
EC50 (COLO 320, COLO-320): 19 nM
EC50 (COLO 699, COLO-699): 9.17 nM
EC50 (COLO 704, COLO-704): 5.98 nM
EC50 (COLO 775): 5.24 nM
EC50 (COLO 792): 5.11 nM
EC50 (COLO-668, COLO 668): 13.2 nM
EC50 (COLO-680N): 12.3 nM
EC50 (COLO-741, COLO 741): 11 nM
EC50 (COLO-800, cell line COLO-800): 10.1 nM
EC50 (COLO-829, COLO 829): 16.6 nM
EC50 (COR-L23, cell line COR-L23): 17.8 nM
EC50 (COR-L47, COR-L47): 9.05 nM
EC50 (COR-L88, COR-L88): 29.3 nM
EC50 (COR-L279, COR-L279): 7.34 nM
EC50 (COV318, COV318): 6.86 nM
EC50 (COV504, COV504): 7.72 nM
EC50 (COV644): 6.9 nM
EC50 (Calu-1, Calu-1): 17.6 nM
EC50 (Calu-3, Calu-3): 4.34 nM
EC50 (Calu-6, Calu-6): 17.8 nM
EC50 (Caov-3, Caov-3): 7.49 nM
EC50 (Ci-1, CI-1): 4.61 nM
EC50 (DAN-G): 8.14 nM
EC50 (DB): 3.38 nM
EC50 (DBTRG-05MG, cell line DBTRG-05MG): 34.7 nM
EC50 (DK-MG): 5.7 nM
EC50 (DLD-1, DLD-1): 6.51 nM
EC50 (DMS-79, cell line DMS 79): 13.6 nM
EC50 (DMS-114, DMS 114): 14 nM
EC50 (DMS-273, DMS 273): 6.64 nM
EC50 (DOHH-2, DOHH-2): 4.61 nM
EC50 (DU-145, DU 145): 17.5 nM
EC50 (DU-4475, DU4475): 5.05 nM
EC50 (DV-90, DV-90): 22.4 nM
EC50 (Daoy): 6.56 nM
EC50 (Detroit 562, cell line Detroit 562): 11.4 nM
EC50 (EBC-1, EBC-1): 8.25 nM
EC50 (EFM-19, EFM-19): 22.5 nM
EC50 (EFM-192A): 25.5 nM
EC50 (EM-2, EM-2): 1.63 nM
EC50 (EN): 15 nM
EC50 (EOL1, EOL-1): 6.8 nM
EC50 (ES-2, ES-2): 10.4 nM
EC50 (ESS-1, ESS-1): 8.62 nM
EC50 (FU-OV-1): 12.5 nM
EC50 (FaDu, cell line FaDu): 16.5 nM
EC50 (G-361, G-361): 2.83 nM
EC50 (G-401, G-401): 8.69 nM
EC50 (G-402, G-402): 5.03 nM
EC50 (GA-10, cell line GA-10): 15.5 nM
EC50 (GAMG, cell line GAMG): 17.7 nM
EC50 (GCIY): 6.77 nM
EC50 (GMS-10, cell line GMS-10): 11.2 nM
EC50 (GOS-3): 6.46 nM
EC50 (GP2d): 14.7 nM
EC50 (GR-M): 7.08 nM
EC50 (Granta-519, GRANTA-519): 3.79 nM
EC50 (HARA): 11.9 nM
EC50 (HCC15, HCC-15): 23.1 nM
EC50 (HCC38, HCC38): 3.99 nM
EC50 (HCC44, HCC-44): 19.7 nM
EC50 (HCC95, HCC-95): 14.1 nM
EC50 (HCC366, HCC-366): 11.1 nM
EC50 (HCC827, HCC827): 8.42 nM
EC50 (HCC1143, HCC1143): 15.1 nM
EC50 (HCC1171, HCC-1171): 27.1 nM
EC50 (HCC1187, HCC1187): 6.22 nM
EC50 (HCC1395, HCC1395): 17.5 nM
EC50 (HCC1419, HCC1419): 28.6 nM
EC50 (HCC1428, HCC1428): 396 nM
SMILES: CC(C)C[C@H](NC(=O)[C@H](Cc1ccccc1)NC(=O)c1cnccn1)B(O)O [Bortezomib]
AMAX (22Rv1): -94.313
AMAX (59M): -95.8554
AMAX (769-P): -95.8011
AMAX (786-O): -95.6334
AMAX (A4/Fuk): -96.8168
AMAX (A101D): -96.1689
AMAX (BV-173): -96.2276
AMAX (CAL-54): -95.8702
AMAX (CAL-78): -96.6244
AMAX (CAS-1): -94.9696
AMAX (CMK-11-5): -95.7224
AMAX (CML-T1): -97.037
AMAX (COLO 668): -97.3658
AMAX (COR-L88): -87.7017
AMAX (COR-L279): -96.4332
AMAX (COV318): -92.9911
AMAX (COV504): -89.7599
AMAX (DK-MG): -95.0625
AMAX (DMS 273): -96.4842
AMAX (DOHH-2): -97.4407
AMAX (EM-2): -96.8249
AMAX (GCIY): -97.1531
AMAX (GR-M): -97.3342
AMAX (HEC-6): -96.6882
AMAX (HEC-50B): -86.5583
AMAX (HEC-151): -96.6048
AMAX (HEC-265): -95.5903
AMAX (HGC-27): -96.7322
AMAX (HLC-1): -96.4119
AMAX (HMC-1-8): -96.1255
AMAX (HTK-): -96.3221
EC50 (HCC70, HCC70): 7.14 nM
